# Reference: PubChem BioAssay (NCI)
#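 48-hour exposure; five concentrations; linearly interpolated endpoints. TGI marks complete inhibition of growth.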
# Experiments:
# Assay in all cases: NCI-60 cell line screen, 48 h
# MALME-3M melanoma = tested on: MALME-3M melanoma
# HS 578T breast = tested on: HS 578T breast
# NCI-H460 lung = tested on: NCI-H460 lung
# SNB-75 CNS = tested on: SNB-75 CNS
# COLO 205 colon = tested on: COLO 205 colon
# SK-MEL-2 melanoma = tested on: SK-MEL-2 melanoma
# T-47D breast = tested on: T-47D breast
# ACHN renal = tested on: ACHN renal
# HOP-62 NSCLC = tested on: HOP-62 NSCLC
# HCC-2998 colon = tested on: HCC-2998 colon
# OVCAR-8 ovarian = tested on: OVCAR-8 ovarian
# SK-MEL-28 melanoma = tested on: SK-MEL-28 melanoma
# NCI-H226 lung = tested on: NCI-H226 lung
# DU-145 prostate = tested on: DU-145 prostate
# M14 melanoma = tested on: M14 melanoma
# HL-60(TB) leukemia = tested on: HL-60(TB) leukemia
# MOLT-4 leukemia = tested on: MOLT-4 leukemia
# SK-MEL-5 melanoma = tested on: SK-MEL-5 melanoma
# MDA-N = tested on: MDA-N
# EKVX NSCLC = tested on: EKVX NSCLC
Compound,TGI (MALME-3M melanoma) [µM],TGI (HS 578T breast) [µM],TGI (NCI-H460 lung) [µM],TGI (SNB-75 CNS) [µM],TGI (COLO 205 colon) [µM],TGI (SK-MEL-2 melanoma) [µM],TGI (T-47D breast) [µM],TGI (ACHN renal) [µM],TGI (HOP-62 NSCLC) [µM],TGI (HCC-2998 colon) [µM],TGI (OVCAR-8 ovarian) [µM],TGI (SK-MEL-28 melanoma) [µM],TGI (NCI-H226 lung) [µM],TGI (DU-145 prostate) [µM],TGI (M14 melanoma) [µM],TGI (HL-60(TB) leukemia) [µM],TGI (MOLT-4 leukemia) [µM],TGI (SK-MEL-5 melanoma) [µM],TGI (MDA-N) [µM],TGI (EKVX NSCLC) [µM]
O=C1NCN(c2ccccc2)C12CCN(CCCN1CCN(CCOC(c3ccccc3)c3ccccc3)CC1)CC2,5.54,7.97,7.45,5.46,2.26,6.75,7.18,5.88,6.6,1.02,6.51,2.42,7.35,7,3.86,4.31,6.4,2.35,2.12,7.24
COc1ccc(CC2Cc3ccccc3CC(=O)N2)cc1OC (stereo not given),> 100,> 100,> 100,> 100,> 100,> 100,58.5,> 100,> 100,> 100,> 100,> 100,> 100,> 100,> 100,> 100,65,54.1,> 100,> 100
CC1(C)C(CBr)=[N+]([O-])C(C)(C)N1O,7.06,> 10,> 10,> 10,3.75,> 10,5.24,> 8.86,> 10,> 10,> 10,> 10,> 10,> 10,5.65,> 6.81,> 7.43,> 10,> 10,> 8.02
NS(=O)(=O)c1ccc(N=Nc2ccc(O)cc2)cc1,> 100,> 100,> 100,88.9,> 100,> 100,> 100,> 100,> 100,> 100,> 100,> 100,89.1,> 100,> 100,> 100,> 100,> 100,> 100,> 100
CCOC(=O)C(=CNc1ccc(S(N)(=O)=O)cc1)C(=O)OCC,> 100,> 100,> 100,> 100,> 100,> 100,> 100,> 100,> 100,> 100,> 100,> 100,> 100,> 100,> 100,> 100,> 100,> 100,> 100,> 100
